For two compounds, IC50 results are on record in ChEMBL document CHEMBL1123787, “Radioiodinated p-iodoclonidine: a high-affinity probe for the alpha 2-adrenergic receptor” (J Med Chem, 1987).

The target in the experiment is T1, Adrenergic receptor alpha-2 (Homo sapiens, UniProt P08913+P18825+P18089).
T1 sequence (P08913 whole entry): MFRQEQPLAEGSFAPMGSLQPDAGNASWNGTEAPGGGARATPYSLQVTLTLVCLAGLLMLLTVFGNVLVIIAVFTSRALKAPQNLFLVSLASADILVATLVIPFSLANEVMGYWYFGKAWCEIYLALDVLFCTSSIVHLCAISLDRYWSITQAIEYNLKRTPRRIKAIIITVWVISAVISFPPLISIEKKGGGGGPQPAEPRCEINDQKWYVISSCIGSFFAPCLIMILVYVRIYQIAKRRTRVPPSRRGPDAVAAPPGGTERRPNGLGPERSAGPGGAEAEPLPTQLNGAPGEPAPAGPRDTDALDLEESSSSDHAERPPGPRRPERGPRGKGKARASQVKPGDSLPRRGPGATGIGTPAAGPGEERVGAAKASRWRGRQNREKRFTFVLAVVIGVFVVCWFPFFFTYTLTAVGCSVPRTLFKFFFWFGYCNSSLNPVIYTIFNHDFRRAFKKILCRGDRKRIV
T1 sequence (P18825 whole entry): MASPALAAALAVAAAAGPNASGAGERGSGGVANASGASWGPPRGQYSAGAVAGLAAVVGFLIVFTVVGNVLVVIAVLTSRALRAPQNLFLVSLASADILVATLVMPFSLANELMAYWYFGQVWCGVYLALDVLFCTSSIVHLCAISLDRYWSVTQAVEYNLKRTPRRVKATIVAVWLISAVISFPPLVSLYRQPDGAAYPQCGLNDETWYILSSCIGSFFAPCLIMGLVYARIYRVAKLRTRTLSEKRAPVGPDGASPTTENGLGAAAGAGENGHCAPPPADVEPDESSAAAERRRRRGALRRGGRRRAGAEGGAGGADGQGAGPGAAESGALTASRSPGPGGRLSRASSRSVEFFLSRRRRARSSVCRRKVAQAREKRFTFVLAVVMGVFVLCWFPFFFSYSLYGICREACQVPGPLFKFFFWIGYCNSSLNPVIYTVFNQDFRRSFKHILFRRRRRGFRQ
T1 sequence (P18089 whole entry): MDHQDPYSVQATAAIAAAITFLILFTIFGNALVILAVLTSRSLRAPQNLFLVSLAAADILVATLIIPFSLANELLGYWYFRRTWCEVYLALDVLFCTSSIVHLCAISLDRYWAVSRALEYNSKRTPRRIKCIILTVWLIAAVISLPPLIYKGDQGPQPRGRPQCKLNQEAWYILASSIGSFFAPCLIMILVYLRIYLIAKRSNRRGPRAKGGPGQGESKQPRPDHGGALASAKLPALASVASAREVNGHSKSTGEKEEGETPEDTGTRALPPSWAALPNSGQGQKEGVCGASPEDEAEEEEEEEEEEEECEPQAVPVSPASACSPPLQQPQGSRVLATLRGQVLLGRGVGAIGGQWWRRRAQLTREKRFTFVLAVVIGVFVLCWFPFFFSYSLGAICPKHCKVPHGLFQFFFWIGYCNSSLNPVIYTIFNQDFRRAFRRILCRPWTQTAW

The structures appear in SMILES notation.

On to `O=[N+]([O-])c1cc(Cl)c(N=C2NCCN2)c(Cl)c1`, for which the IC50 was 10 µM.
The compound `Clc1cc(N=NN2CCCC2)cc(Cl)c1NC1=NCCN1` came in with an IC50 of 2 µM.
